Experiment [1] is described as follows: Cytotoxicity against human LO2 cells after 48 hrs by MTT assay. The note with it: L02, 48 h. The class given is cell-based. A general note: Tetrazolium assays rely on reduction of a dye to a coloured formazan, in cell work by metabolically active cells.
A short description of experiment [2]: Cytotoxicity against human MGC803 cells after 48 hrs by MTT assay. The format is functional, cell-based. Particulars: MGC-803, 48 h.
In experiment [3] the test system is SW1990. The experiment is described as follows: Cytotoxicity against human SW1990 cells after 48 hrs by MTT assay. The format is functional, cell-based. The note with it: SW1990, 48 h.
Experiment [4] in a line: Cytotoxicity against human P15 cells after 48 hrs by MTT assay. The class given is functional, cell-based. The note with it: P15, 48 h.

A value given as a limit tells only on which side of the number the result lay.

For the compound `CO[C@@H]1[C@@H](O)[C@@H](O[C@@H]2CC[C@]3(CO)[C@@H](CC[C@H]4[C@H]3CC[C@@]3(C)[C@H](C5=CC(=O)OC5)CC[C@@]43O)C2)O[C@H](C)[C@H]1O[C@@H]1O[C@H](CO)[C@@H](O)[C@H](O)[C@H]1O`, the half-maximal inhibitory concentration (IC50) was more than 10 µM in experiment [1], 0.32 µM in experiment [2], 0.13 µM in experiment [3] and 0.12 µM in experiment [4].

Regarding `CO[C@H]1[C@@H](O)[C@H](O[C@H]2CC[C@@]3(C)[C@@H](CC[C@@H]4[C@@H]3CC[C@]3(C)[C@@H](C5=CC(=O)OC5)CC[C@]43O)C2)O[C@@H](C)[C@@H]1O[C@H]1O[C@@H](CO[C@@H]2O[C@H](CO)[C@@H](O)[C@H](O)[C@H]2O)[C@H](O)[C@@H](O)[C@@H]1O`, the IC50 in experiment [1] was more than 10 µM; in experiment [2], 6.56 µM; in experiment [3], more than 10 µM; in experiment [4], 10 µM.

Take `CO[C@H]1[C@H](O)[C@H](O[C@@H]2CC[C@]3(C(=O)O)[C@@H](CC[C@H]4[C@H]3CC[C@@]3(C)[C@H](C5=CC(=O)OC5)CC[C@@]43O)C2)O[C@@H](C)[C@@H]1O[C@H]1O[C@@H](CO[C@@H]2O[C@H](CO)[C@@H](O)[C@H](O)[C@H]2O)[C@H](O)[C@@H](O)[C@@H]1O`: the IC50 in experiment [1], in experiment [2], in experiment [3] and in experiment [4] was more than 10 µM in each case.

Turning to `CO[C@H]1[C@@H](O)[C@H](O[C@H]2CC[C@@]3(C)[C@H](CC[C@@H]4[C@@H]3CC[C@]3(C)[C@@H](C5=CC(=O)OC5)CC[C@]43O)C2)O[C@@H](C)[C@@H]1O[C@H]1O[C@@H](CO)[C@H](O)[C@@H](O)[C@@H]1O`, the 50% inhibitory concentration (IC50) in experiment [1] is more than 10 µM; in experiment [2], more than 10 µM; in experiment [3], 1.69 µM; in experiment [4], 1.5 µM.

For the compound `CO[C@H]1[C@H](O)[C@H](O[C@H]2CC[C@@]3(C=O)[C@H](CC[C@@H]4[C@@H]3CC[C@]3(C)[C@@H](C5=CC(=O)OC5)CC[C@]43O)C2)O[C@@H](C)[C@@H]1O` [PERUVOSIDE], the IC50 was more than 10 µM in experiment [1], 0.02 µM in experiment [2], 0.02 µM in experiment [3] and 0.03 µM in experiment [4].

As to `CO[C@H]1[C@H](O)[C@H](O[C@H]2CC[C@@]3(C)[C@@H](CC[C@@H]4[C@@H]3CC[C@]3(C)[C@@H](C5=CC(=O)OC5)CC[C@]43O)C2)O[C@@H](C)[C@@H]1O[C@H]1O[C@@H](CO[C@@H]2O[C@H](CO)[C@@H](O)[C@H](O)[C@H]2O)[C@H](O)[C@@H](O)[C@@H]1O`, the IC50 was more than 10 µM in experiment [1], 8.32 µM in experiment [2], more than 10 µM in experiment [3] and 10 µM in experiment [4].

As to `CO[C@H]1[C@H](O)[C@H](O[C@H]2CC[C@@]3(O)[C@H](CC[C@@H]4[C@@H]3CC[C@]3(C)[C@@H](C5=CC(=O)OC5)CC[C@]43O)C2)O[C@@H](C)[C@@H]1O`, the IC50 in experiment [1] was more than 10 µM; in experiment [2] it was 2.14 µM; in experiment [3] it was 0.49 µM; in experiment [4], 1.52 µM.

Take `CO[C@H]1[C@H](O)[C@H](O[C@H]2CC[C@@]3(C)[C@H](CC[C@@H]4[C@@H]3CC[C@]3(C)[C@@H](C5=CC(=O)OC5)CC[C@]43O)C2)O[C@@H](C)[C@@H]1O[C@H]1O[C@@H](CO[C@@H]2O[C@H](CO)[C@@H](O)[C@H](O)[C@H]2O)[C@H](O)[C@@H](O)[C@@H]1O`: the IC50 is more than 10 µM in experiment [1], more than 10 µM in experiment [2], 4.56 µM in experiment [3] and 3.97 µM in experiment [4].

In the case of `CO[C@H]1[C@H](O)[C@H](O[C@H]2CC[C@@]3(O)[C@H](CC[C@@H]4[C@@H]3CC[C@]3(C)[C@@H](C5=CC(=O)OC5)CC[C@]43O)C2)O[C@@H](C)[C@@H]1O[C@H]1O[C@@H](CO)[C@H](O)[C@@H](O)[C@@H]1O`, the IC50 in experiment [1], in experiment [2], in experiment [3] and in experiment [4] was more than 10 µM throughout.

In the case of `CO[C@@H]1[C@@H](O)[C@@H](O[C@H]2CC[C@@]3(C(=O)O)[C@H](CC[C@@H]4[C@@H]3CC[C@]3(C)[C@@H](C5=CC(=O)OC5)CC[C@]43O)C2)O[C@H](C)[C@H]1O[C@@H]1O[C@H](CO)[C@@H](O)[C@H](O)[C@H]1O`, the IC50 in experiment [1], in experiment [2], in experiment [3] and in experiment [4] was more than 10 µM in each case.

`CO[C@H]1[C@H](O)[C@H](O[C@H]2CC[C@@]3(OO)[C@H](CC[C@@H]4[C@@H]3CC[C@]3(C)[C@@H](C5=CC(=O)OC5)CC[C@]43O)C2)O[C@@H](C)[C@@H]1O[C@@H]1O[C@H](CO[C@@H]2O[C@H](CO)[C@@H](O)[C@H](O)[C@H]2O)[C@@H](O)[C@H](O)[C@H]1O`: the half-maximal inhibitory concentration (IC50) in experiment [1] is more than 10 µM; in experiment [2], more than 10 µM; in experiment [3], 3.62 µM; in experiment [4], more than 10 µM.

For the compound `CO[C@H]1[C@H](OC(C)=O)[C@H](O[C@H]2CC[C@@]3(C)[C@@H](CC[C@@H]4[C@@H]3CC[C@]3(C)[C@@H](C5=CC(=O)OC5)CC[C@]43O)C2)O[C@@H](C)[C@@H]1O[C@H]1O[C@@H](CO[C@@H]2O[C@H](CO)[C@@H](O)[C@H](O)[C@H]2O)[C@H](O)[C@@H](O)[C@@H]1O`, the half-maximal inhibitory concentration (IC50) in experiment [1] is more than 10 µM; in experiment [2], 10 µM; in experiment [3], more than 10 µM; in experiment [4], more than 10 µM.

On to `CO[C@H]1[C@H](O)[C@H](O[C@H]2CC[C@@]3(C)[C@H](CC[C@@H]4[C@@H]3CC[C@]3(C)[C@@H](C5=CC(=O)OC5)CC[C@]43O)C2)O[C@@H](C)[C@@H]1O[C@H]1O[C@@H](CO)[C@H](O)[C@@H](O)[C@@H]1O`, for which the IC50 in experiment [1] was more than 10 µM; in experiment [2], 0.42 µM; in experiment [3], 0.62 µM; in experiment [4], 0.4 µM.

Turning to `CO[C@@H]1[C@@H](O)[C@@H](O[C@@H]2CC[C@]3(CO)[C@@H](CC[C@H]4[C@H]3CC[C@@]3(C)[C@H](C5=CC(=O)OC5)CC[C@@]43O)C2)O[C@H](C)[C@H]1O[C@@H]1O[C@H](CO[C@H]2O[C@@H](CO)[C@H](O)[C@@H](O)[C@@H]2O)[C@@H](O)[C@H](O)[C@H]1O`, the IC50 is more than 10 µM in experiment [1], 9.52 µM in experiment [2], 7.7 µM in experiment [3] and 10 µM in experiment [4].

As for `CO[C@H]1[C@H](O)[C@H](O[C@H]2CC[C@@]3(O)[C@H](CC[C@@H]4[C@@H]3CC[C@]3(C)[C@@H](C5=CC(=O)OC5)CC[C@]43O)C2)O[C@@H](C)[C@@H]1O[C@@H]1O[C@H](CO[C@@H]2O[C@H](CO)[C@@H](O)[C@H](O)[C@H]2O)[C@@H](O)[C@H](O)[C@H]1O`, the half-inhibitory concentration (IC50) in experiment [1], in experiment [2], in experiment [3] and in experiment [4] was more than 10 µM throughout.

For the compound `CO[C@H]1[C@H](OC(C)=O)[C@H](O[C@@H]2CC[C@]3(C=O)[C@@H](CC[C@H]4[C@H]3CC[C@@]3(C)[C@H](C5=CC(=O)OC5)CC[C@@]43O)C2)O[C@@H](C)[C@@H]1O[C@H]1O[C@@H](CO)[C@H](O)[C@@H](O)[C@@H]1O`, the IC50 in experiment [1] is more than 10 µM; in experiment [2] it was 1.23 µM; in experiment [3], 0.97 µM; in experiment [4], 0.59 µM.

Regarding `CO[C@H]1[C@H](O)[C@H](O[C@H]2CC[C@@]3(C)[C@@H](CC[C@@H]4[C@@H]3CC[C@]3(C)[C@@H](C5=CC(=O)OC5)CC[C@]43O)C2)O[C@@H](C)[C@@H]1O[C@H]1O[C@@H](CO)[C@H](O)[C@@H](O)[C@@H]1O`, the IC50 in experiment [1] was more than 10 µM; in experiment [2] it was 3.42 µM; in experiment [3], 4.54 µM; in experiment [4], 2.68 µM.

Turning to `CO[C@H]1[C@H](OC(C)=O)[C@H](O[C@H]2CC[C@@]3(C)[C@H](CC[C@@H]4[C@@H]3CC[C@]3(C)[C@@H](C5=CC(=O)OC5)CC[C@]43O)C2)O[C@@H](C)[C@@H]1O[C@H]1O[C@@H](CO)[C@H](O)[C@@H](O)[C@@H]1O`, the IC50 was more than 10 µM in experiment [1], 3.21 µM in experiment [2], 1.84 µM in experiment [3] and 2.84 µM in experiment [4].

Consider `CO[C@@H]1[C@@H](O)[C@@H](O[C@@H]2CC[C@]3(C=O)[C@@H](CC[C@H]4[C@H]3CC[C@@]3(C)[C@H](C5=CC(=O)OC5)CC[C@@]43O)C2)O[C@H](C)[C@H]1O[C@@H]1O[C@H](CO)[C@@H](O)[C@H](O)[C@H]1O`, for which the half-inhibitory concentration (IC50) in experiment [1] is more than 10 µM; in experiment [2], 5.32 µM; in experiment [3], 0.64 µM; in experiment [4], 1.46 µM.

Consider `O=c1[nH]cc(F)c(=O)[nH]1` [FLUOROURACIL], for which the IC50 in experiment [1] is more than 10 µM; in experiment [2], 68.3 µM; in experiment [3], 126 µM; in experiment [4], 89.2 µM.

On to `CO[C@H]1[C@H](O)[C@H](O[C@H]2CC[C@H]3[C@H](CC[C@@H]4[C@@H]3CC[C@]3(C)[C@@H](C5=CC(=O)OC5)CC[C@]43O)C2)O[C@@H](C)[C@@H]1O[C@@H]1O[C@H](CO[C@@H]2O[C@H](CO)[C@@H](O)[C@H](O)[C@H]2O)[C@@H](O)[C@H](O)[C@H]1O`, for which the IC50 was more than 10 µM in experiment [1], 8.18 µM in experiment [2], 3.13 µM in experiment [3] and more than 10 µM in experiment [4].

Regarding `CO[C@H]1[C@H](OC(C)=O)[C@H](O[C@H]2CC[C@@]3(C)[C@H](CC[C@@H]4[C@@H]3CC[C@]3(C)[C@@H](C5=CC(=O)OC5)CC[C@]43O)C2)O[C@@H](C)[C@@H]1O[C@H]1O[C@@H](CO[C@@H]2O[C@H](CO)[C@@H](O)[C@H](O)[C@H]2O)[C@H](O)[C@@H](O)[C@@H]1O`, the 50% inhibitory concentration (IC50) in experiment [1] is more than 10 µM; in experiment [2], 7.04 µM; in experiment [3], 5.82 µM; in experiment [4], 4.75 µM.

As usually defined, the IC50 is the point on the concentration scale where inhibition reaches its midpoint. The low end stands for greater potency in that assay, the high end for weaker potency in that assay.

The values are drawn from ChEMBL document CHEMBL3792337, “Cardiac Glycosides from the Seeds of Thevetia peruviana” (J Nat Prod, 2016).
